Molecular target: T1, full-length ATR (Homo sapiens, UniProt Q13535)
T1 construct: in the presence of 5 nM full-length ATR
Assay: ATR Inhibition Assay (radioactive-phosphate incorporation)
Type: biochemical
Conditions: Ki(app); 5 nM full-length ATR, 10 μM ATP, 800 μM target peptide, 25° C.
Procedure, shortened: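 After a 10-min pre-incubation of compound with 5 nM enzyme at 25 °C, ATP was added to start the reaction (final 10 μM [γ-33P]ATP, 800 μM peptide; Tris/HCl pH 7.5, MgCl2, DTT), which ran 24 h. Incorporated 33P was captured on phosphocellulose filters, and Ki(app) was fitted by non-linear regression.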

T1 sequence (Q13535 whole entry): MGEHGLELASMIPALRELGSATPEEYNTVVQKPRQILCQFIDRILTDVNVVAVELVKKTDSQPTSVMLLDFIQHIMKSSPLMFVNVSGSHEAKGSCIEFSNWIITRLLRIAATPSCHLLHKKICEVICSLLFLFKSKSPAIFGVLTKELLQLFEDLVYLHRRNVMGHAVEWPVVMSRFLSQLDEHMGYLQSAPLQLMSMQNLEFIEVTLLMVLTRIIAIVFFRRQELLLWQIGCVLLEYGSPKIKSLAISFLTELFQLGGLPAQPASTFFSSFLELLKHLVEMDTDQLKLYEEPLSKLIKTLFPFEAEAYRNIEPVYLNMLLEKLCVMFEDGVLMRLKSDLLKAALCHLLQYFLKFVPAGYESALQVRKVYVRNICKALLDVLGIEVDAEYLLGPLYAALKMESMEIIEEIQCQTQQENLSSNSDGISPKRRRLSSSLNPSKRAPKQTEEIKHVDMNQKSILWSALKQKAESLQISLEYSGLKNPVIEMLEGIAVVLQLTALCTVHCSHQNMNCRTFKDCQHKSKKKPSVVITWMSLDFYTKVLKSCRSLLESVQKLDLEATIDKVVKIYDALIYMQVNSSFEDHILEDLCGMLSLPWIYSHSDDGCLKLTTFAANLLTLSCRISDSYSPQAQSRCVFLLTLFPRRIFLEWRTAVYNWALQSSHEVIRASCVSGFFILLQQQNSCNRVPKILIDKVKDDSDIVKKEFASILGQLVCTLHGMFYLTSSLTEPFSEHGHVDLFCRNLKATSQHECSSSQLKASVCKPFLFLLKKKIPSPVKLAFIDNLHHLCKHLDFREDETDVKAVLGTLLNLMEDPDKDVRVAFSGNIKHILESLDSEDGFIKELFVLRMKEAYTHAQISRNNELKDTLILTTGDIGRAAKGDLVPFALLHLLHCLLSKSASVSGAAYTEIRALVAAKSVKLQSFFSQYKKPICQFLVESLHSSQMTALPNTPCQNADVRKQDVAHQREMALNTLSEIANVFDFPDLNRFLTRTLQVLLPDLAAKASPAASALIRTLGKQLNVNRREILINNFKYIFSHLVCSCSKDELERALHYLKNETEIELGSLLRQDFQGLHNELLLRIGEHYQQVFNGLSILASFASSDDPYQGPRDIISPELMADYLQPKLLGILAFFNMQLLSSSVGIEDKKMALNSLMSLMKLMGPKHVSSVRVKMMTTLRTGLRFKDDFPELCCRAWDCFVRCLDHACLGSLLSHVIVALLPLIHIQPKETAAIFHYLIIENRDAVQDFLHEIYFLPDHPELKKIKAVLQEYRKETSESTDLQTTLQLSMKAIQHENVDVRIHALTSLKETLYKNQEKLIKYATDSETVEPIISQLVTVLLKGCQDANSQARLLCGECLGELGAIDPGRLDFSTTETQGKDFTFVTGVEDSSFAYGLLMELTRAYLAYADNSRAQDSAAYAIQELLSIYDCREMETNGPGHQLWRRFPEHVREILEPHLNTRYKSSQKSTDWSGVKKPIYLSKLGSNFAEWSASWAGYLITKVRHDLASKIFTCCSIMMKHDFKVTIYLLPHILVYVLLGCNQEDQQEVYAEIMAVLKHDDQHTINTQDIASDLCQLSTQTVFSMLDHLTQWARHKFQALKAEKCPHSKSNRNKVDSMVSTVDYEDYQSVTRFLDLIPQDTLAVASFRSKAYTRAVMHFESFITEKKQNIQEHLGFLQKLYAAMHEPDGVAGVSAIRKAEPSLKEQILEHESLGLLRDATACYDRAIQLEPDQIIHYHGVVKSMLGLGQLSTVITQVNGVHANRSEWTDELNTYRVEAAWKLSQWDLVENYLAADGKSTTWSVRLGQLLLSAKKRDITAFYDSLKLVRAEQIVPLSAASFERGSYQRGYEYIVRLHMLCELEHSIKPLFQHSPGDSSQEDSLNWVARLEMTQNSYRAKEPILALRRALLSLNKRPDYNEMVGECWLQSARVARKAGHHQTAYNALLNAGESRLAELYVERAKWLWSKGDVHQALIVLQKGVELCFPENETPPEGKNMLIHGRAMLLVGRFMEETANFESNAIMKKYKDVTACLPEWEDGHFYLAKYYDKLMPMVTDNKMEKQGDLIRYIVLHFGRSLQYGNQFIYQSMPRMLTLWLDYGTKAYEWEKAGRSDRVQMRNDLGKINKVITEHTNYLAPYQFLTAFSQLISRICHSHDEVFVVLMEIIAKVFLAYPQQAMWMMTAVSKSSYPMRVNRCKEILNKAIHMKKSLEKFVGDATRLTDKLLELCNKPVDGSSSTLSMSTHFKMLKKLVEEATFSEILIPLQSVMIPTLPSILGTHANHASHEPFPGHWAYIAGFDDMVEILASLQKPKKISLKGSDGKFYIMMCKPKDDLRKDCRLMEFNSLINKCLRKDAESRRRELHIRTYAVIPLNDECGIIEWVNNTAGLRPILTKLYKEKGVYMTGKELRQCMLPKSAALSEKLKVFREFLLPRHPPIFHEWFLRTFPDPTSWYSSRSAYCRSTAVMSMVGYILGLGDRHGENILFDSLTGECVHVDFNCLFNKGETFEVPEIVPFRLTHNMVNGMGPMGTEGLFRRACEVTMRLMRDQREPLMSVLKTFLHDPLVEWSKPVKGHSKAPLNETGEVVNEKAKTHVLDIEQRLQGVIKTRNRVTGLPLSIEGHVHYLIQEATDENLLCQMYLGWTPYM

CN1CCN(C(=O)N2CC=C(c3cnc(N)c(-c4nc5ccccc5[nH]4)n3)CC2)CC1 [Compound I-161, (4-(5-amino-6-(1H-benzo[d]imidazol-2-yl)pyrazin-2-yl)-5,6-dihydropyridin-1(2H)-yl)(4-methylpiperazin-1-yl)methanone] and CN(C)C1CCN(C(=O)N2CC=C(c3cnc(N)c(-c4nc5ccccc5[nH]4)n3)CC2)CC1 [Compound I-173, (4-(5-amino-6-(1H-benzo[d]imidazol-2-yl)pyrazin-2-yl)-5,6-dihydropyridin-1(2H)-yl)(4-(dimethylamino)piperidin-1-yl)methanone] fall in the same range of Ki: 0.1 to 1 µM for the first, 0.1 to 1 µM for the second.

CCS(=O)(=O)N1CCN(c2cnc(N)c(-c3cc(-c4ccccc4)no3)n2)CC1 [Compound I-162, 5-(4-(ethylsulfonyl)piperazin-1-yl)-3-(3-phenylisoxazol-5-yl)pyrazin-2-amine] and CC(=O)N1CCN(c2cnc(N)c(-c3nnc(-c4ccccc4)o3)n2)CC1 [Compound I-180, 1-(4-(5-amino-6-(5-phenyl-1,3,4-oxadiazol-2-yl)pyrazin-2-yl)piperazin-1-yl)ethanone] fall in the same range of Ki: 0.1 to 1 µM for the first, 0.1 to 1 µM for the second.

Compared with CC(C)(C)OC(=O)N1CC=C(c2cnc(N)c(-c3noc(-c4ccccc4)n3)n2)CC1 [Compound I-163, Tert-butyl 4-(5-amino-6-(5-phenyl-1,2,4-oxadiazol-3-yl)pyrazin-2-yl)-5,6-dihydropyridine-1(2H)-carboxylate], CC(C)C(=O)N1CC=C(c2cnc(N)c(-c3nnc(-c4ccccc4)o3)n2)CC1 [Compound I-192, 1-(4-(5-amino-6-(5-phenyl-1,3,4-oxadiazol-2-yl)pyrazin-2-yl)-5,6-dihydropyridin-1(2H)-yl)-2-methylpropan-1-one] is lower in Ki: 0.1 to 1 µM for the first, less than 0.1 µM for the second. The second binds more tightly here.

First: Nc1ncc(C2=CCN(c3nccs3)CC2)nc1-c1nc2ccccc2[nH]1 [Compound I-164, 3-(1H-benzo[d]imidazol-2-yl)-5-(1-(thiazol-2-yl)-1,2,3,6-tetrahydropyridin-4-yl)pyrazin-2-amine]
Second: Nc1ncc(C2=CCN(C(=O)c3cccnc3)CC2)nc1-c1nc2ccccc2[nH]1 [Compound I-191]
The Ki of the first is lower: less than 0.1 µM for the first, 0.1 to 1 µM for the second.

Compared with CCS(=O)(=O)N1CC=C(c2cnc(N)c(C(=O)Nc3cccnc3OC)n2)CC1 [Compound I-165, 3-amino-6-(1-(ethylsulfonyl)-1,2,3,6-tetrahydropyridin-4-yl)-N-(2-methoxypyridin-3-yl)pyrazine-2-carboxamide], CCS(=O)(=O)N1CC=C(c2cnc(N)c(C(=O)Nc3ccccn3)n2)CC1 [Compound I-171, 3-amino-6-(1-(ethylsulfonyl)-1,2,3,6-tetrahydropyridin-4-yl)-N-(pyridin-2-yl)pyrazine-2-carboxamide] is higher in Ki: less than 0.1 µM for the first, 0.1 to 1 µM for the second. The first binds more tightly here.

First: CCS(=O)(=O)N1CC=C(c2cnc(N)c(C(=O)Nc3ccnc(C)c3)n2)CC1 [Compound I-166, 3-amino-6-(1-(ethylsulfonyl)-1,2,3,6-tetrahydropyridin-4-yl)-N-(2-methylpyridin-4-yl)pyrazine-2-carboxamide]
Second: CCS(=O)(=O)N1CC=C(c2cnc(N)c(C(=O)Nc3cc(C)ccn3)n2)CC1 [Compound I-167, 3-amino-6-(1-(ethylsulfonyl)-1,2,3,6-tetrahydropyridin-4-yl)-N-(4-methylpyridin-2-yl)pyrazine-2-carboxamide]
The Ki of the first is higher: 0.1 to 1 µM for the first, less than 0.1 µM for the second.

CCS(=O)(=O)N1CC=C(c2cnc(N)c(C(=O)Nc3cc(C)nn3C)n2)CC1 [Compound I-168, 3-amino-N-(1,3-dimethyl-1H-pyrazol-5-yl)-6-(1-(ethylsulfonyl)-1,2,3,6-tetrahydropyridin-4-yl)pyrazine-2-carboxamide] and CCS(=O)(=O)N1CC=C(c2cnc(N)c(C(=O)Nc3cnccn3)n2)CC1 [Compound I-170, 3-amino-6-(1-(ethylsulfonyl)-1,2,3,6-tetrahydropyridin-4-yl)-N-(pyrazin-2-yl)pyrazine-2-carboxamide] fall in the same range of Ki: 0.1 to 1 µM for the first, 0.1 to 1 µM for the second.

CCS(=O)(=O)N1CC=C(c2cnc(N)c(C(=O)Nc3n[nH]c4ccccc34)n2)CC1 [Compound I-169, 3-amino-6-(1-(ethylsulfonyl)-1,2,3,6-tetrahydropyridin-4-yl)-N-(1H-indazol-3-yl)pyrazine-2-carboxamide] and CCS(=O)(=O)N1CC=C(c2cnc(N)c(C(=O)Nc3nc4ccccc4[nH]3)n2)CC1 [Compound I-172, 3-amino-N-(1H-benzo[d]imidazol-2-yl)-6-(1-(ethylsulfonyl)-1,2,3,6-tetrahydropyridin-4-yl)pyrazine-2-carboxamide] cannot be ordered by Ki: less than 0.1 µM for the first, less than 0.1 µM for the second.

Nc1ncc(N2CCN(C(=O)C3CCC3)CC2)nc1-c1nc2ccccc2[nH]1 [Compound I-174, (4-(5-amino-6-(1H-benzo[d]imidazol-2-yl)pyrazin-2-yl)piperazin-1-yl)(cyclobutyl)methanone] and CCC(CC)C(=O)N1CCN(c2cnc(N)c(-c3nc4ccccc4[nH]3)n2)CC1 [Compound I-175, 1-(4-(5-amino-6-(1H-benzo[d]imidazol-2-yl)pyrazin-2-yl)piperazin-1-yl)-2-ethylbutan-1-one] fall in the same range of Ki: 1 to 10 µM for the first, 1 to 10 µM for the second.

Nc1ncc(N2CCN(C(=O)c3ccccn3)CC2)nc1-c1nc2ccccc2[nH]1 [Compound I-176, (4-(5-amino-6-(1H-benzo[d]imidazol-2-yl)pyrazin-2-yl)piperazin-1-yl)(pyridin-2-yl)methanone] and Nc1ncc(N2CCN(C(=O)c3c(F)cccc3F)CC2)nc1-c1nc2ccccc2[nH]1 [Compound I-177, (4-(5-amino-6-(1H-benzo[d]imidazol-2-yl)pyrazin-2-yl)piperazin-1-yl)(2,6-difluorophenyl)methanone] fall in the same range of Ki: 0.1 to 1 µM for the first, 0.1 to 1 µM for the second.

COCCOCC(=O)N1CCN(c2cnc(N)c(-c3nnc(-c4ccccc4)o3)n2)CC1 [Compound I-178, 1-(4-(5-amino-6-(5-phenyl-1,3,4-oxadiazol-2-yl)pyrazin-2-yl)piperazin-1-yl)-2-(2-methoxyethoxy)ethanone] and COCC(=O)N1CCN(c2cnc(N)c(-c3nnc(-c4ccccc4)o3)n2)CC1 [Compound I-179, 1-(4-(5-amino-6-(5-phenyl-1,3,4-oxadiazol-2-yl)pyrazin-2-yl)piperazin-1-yl)-2-methoxyethanone] fall in the same range of Ki: 0.1 to 1 µM for the first, 0.1 to 1 µM for the second.

COCCOCC(=O)N[C@H]1CCN(c2cnc(N)c(-c3nc4ccccc4[nH]3)n2)C1 [Compound I-181, (S)-N-(1-(5-amino-6-(1H-benzo[d]imidazol-2-yl)pyrazin-2-yl)pyrrolidin-3-yl)-2-(2-methoxyethoxy)ethanamide] and COCC(=O)N[C@H]1CCN(c2cnc(N)c(-c3nc4ccccc4[nH]3)n2)C1 [Compound I-182, (S)-N-(1-(5-amino-6-(1H-benzo[d]imidazol-2-yl)pyrazin-2-yl)pyrrolidin-3-yl)-2-methoxyethanamide] fall in the same range of Ki: 1 to 10 µM for the first, 1 to 10 µM for the second.

Nc1ncc(N2CCN(C(=O)c3cccnc3)CC2)nc1-c1nnc(-c2ccccc2)o1 [Compound I-183, (4-(5-amino-6-(5-phenyl-1,3,4-oxadiazol-2-yl)pyrazin-2-yl)piperazin-1-yl)(pyridin-3-yl)methanone] and Nc1ncc(N2CCN(C(=O)c3ccccn3)CC2)nc1-c1nnc(-c2ccccc2)o1 [Compound I-187, (4-(5-amino-6-(5-phenyl-1,3,4-oxadiazol-2-yl)pyrazin-2-yl)piperazin-1-yl)(pyridin-2-yl)methanone] fall in the same range of Ki: 0.1 to 1 µM for the first, 0.1 to 1 µM for the second.

First: CN(C)CC(=O)N[C@H]1CCN(c2cnc(N)c(-c3nc4ccccc4[nH]3)n2)C1 [Compound I-184, (S)-N-(1-(5-amino-6-(1H-benzo[d]imidazol-2-yl)pyrazin-2-yl)pyrrolidin-3-yl)-2-(dimethylamino)ethanamide]
Second: CC(=O)N[C@H]1CCN(c2cnc(N)c(-c3nc4ccccc4[nH]3)n2)C1 [Compound I-185, (S)-N-(1-(5-amino-6-(1H-benzo[d]imidazol-2-yl)pyrazin-2-yl)pyrrolidin-3-yl)ethanamide]
The Ki of the first is higher: 1 to 10 µM for the first, 0.1 to 1 µM for the second.

CN(C)CC(=O)N1CC=C(c2cnc(N)c(-c3nc4ccccc4[nH]3)n2)CC1 [Compound I-186, 1-(4-(5-amino-6-(1H-benzo[d]imidazol-2-yl)pyrazin-2-yl)-5,6-dihydropyridin-1(2H)-yl)-2-(dimethylamino)ethanone] and Nc1ncc(N2CC[C@H](NC(=O)c3cccnc3)C2)nc1-c1nc2ccccc2[nH]1 [Compound I-188, (S)-N-(1-(5-amino-6-(1H-benzo[d]imidazol-2-yl)pyrazin-2-yl)pyrrolidin-3-yl)pyridine-3-carboxamide] fall in the same range of Ki: 0.1 to 1 µM for the first, 0.1 to 1 µM for the second.

Nc1ncc(N2CCN(C(=O)C3CCC3)CC2)nc1-c1nnc(-c2ccccc2)o1 [Compound I-189, (4-(5-amino-6-(5-phenyl-1,3,4-oxadiazol-2-yl)pyrazin-2-yl)piperazin-1-yl)(cyclobutyl)methanone] and Nc1ncc(N2CCN(C(=O)C3CCCC3)CC2)nc1-c1nnc(-c2ccccc2)o1 [Compound I-194, (4-(5-amino-6-(5-phenyl-1,3,4-oxadiazol-2-yl)pyrazin-2-yl)piperazin-1-yl)(cyclopentyl)methanone] fall in the same range of Ki: 0.1 to 1 µM for the first, 0.1 to 1 µM for the second.

First: CC(C)C(=O)N1CCN(c2cnc(N)c(-c3nnc(-c4ccccc4)o3)n2)CC1 [Compound I-190, 1-(4-(5-amino-6-(5-phenyl-1,3,4-oxadiazol-2-yl)pyrazin-2-yl)piperazin-1-yl)-2-methylpropan-1-one]
Second: Nc1ncc(N2CCN(C(=O)COc3ccccc3)CC2)nc1-c1nnc(-c2ccccc2)o1 [Compound I-195, 1-(4-(5-amino-6-(5-phenyl-1,3,4-oxadiazol-2-yl)pyrazin-2-yl)piperazin-1-yl)-2-phenoxyethanone]
The Ki of the first is lower: 0.1 to 1 µM for the first, 1 to 10 µM for the second.

With Nc1ncc(N2CC[C@H](NC(=O)c3ccccn3)C2)nc1-c1nc2ccccc2[nH]1 [Compound I-193, (S)-N-(1-(5-amino-6-(1H-benzo[d]imidazol-2-yl)pyrazin-2-yl)pyrrolidin-3-yl)pyridine-2-carboxamide] the Ki was 0.1 to 1 µM.

From patent US8410112B2, “Compounds useful as inhibitors of ATR kinase” (Vertex Pharmaceuticals Incorporated, priority 2008, dated 2013)
